Measured values taken from patent US8426407B2, “Preparation of 1-(substituted aryl)-5-trifluoromethyl-2-(1H)pyridone compounds and salts thereof and their applications” (Central South University, priority 2009, dated 2013).
pIC50: −log10 of the molar value.

Tests used:
[1] = test system: NIH3T3 fibroblasts; assay: Inhibition test of compounds on NIH3T3 fibroblasts (MTT method); type: cell-based; details: for Multiple: multiple of activity versus fluorofenidone from IC50 values; for pIC50: MTT, relative to fluorofenidone on a certain plate
Experimental: Inhibition Test of Compounds on NIH3T3 Fibroblasts
An MTT method is used and comprises steps of: culturing cells in DMEM culture medium including 5% calf serum and preparing the cells into cell suspension of 3×10^4/ml; inoculating in 96-well plate according to 100 μl/well; transferring new culture medium including compounds with different concentration, fluorofenidone and 1% calf serum after cells are adhered, wherein three repeated wells are provided for each concentration; respectively adding 100 μl of MTT solution in each well after 48 hours and 72 hours of administrating (the culture medium is prepared into 5 mg/ml and kept in dark after filtering), sucking out MTT after 4 hours; adding 150 μl of DMSO which is the dissolving liquid of MTT; after 10 min and MTT is completely dissolved, measuring OD value by ELISA reader; calculating IC50 values of fluorofenidone and measured compounds according to inhibition ratio; calculating multiple of activities of measured compounds and fluorofenidone according to IC50 values of fluorofenidone and measured compounds; and obtaining relative IC50 value of measured compounds according to multiple and IC50 value of fluorofenidone on a certain plate.

[2] = test system: rat unilateral ureteral obstruction renal fibrosis model; assay: Rat unilateral ureteral obstruction renal fibrosis model; type: in vivo
Experimental: Observation of Treatment Effect of Compound 13 in a Rat Unilateral Ureteral Obstruction Renal Fibrosis Model
(1) Randomization: nine rats are divided into three groups at random, namely a normal group (n=3); a model group (n=3) and a treatment group (n=3) treated by compound 13 of 15 mg/kg; three rats are in a hutch; and the experimental animals are adaptively fed for two days. […]
HE stained slices of renal tissues are successively observed in fives fields of view of renal tubulointerstitium on upper left side, upper right side, lower left side, lower right side and middle portion by a low power lens and are evaluated according to eight indexes of renal interstitium lesion: renal tubular epithelial cell vacuolar degeneration, renal tubular ectasia, renal tubular atrophy, red cell cast, protein cast, interstitial edema, interstitial fibrosis and interstitial inflammatory cell infiltration; an average value is calculated as the index of renal tubulointerstitial lesion of the sample; and the evaluation standard is based on the reference of Radford M G Jr, Donadio J V Jr, Bergstralh E J, et al. Predicting renal outcome in IgA nephropathy. […]
Masson staining slices of renal tissues are observed in 20 fields of vision for each sample at random under 400X light microscope; percent of blue-stain collagens in the fields of vision is calculated; an average value is determined after semi-quantitative evaluation: no positive staining, 0; <25%, 1; 25-50%, 2; 50-75%, 3; >75%, 4; and the evaluation standard is based on references. […]

[3] = Mus musculus, NIH3T3, 48 h, 48 hours after administration
[4] = Mus musculus, NIH3T3, 72 h, 72 hours after administration

SMILES	Multiple ([1]; 48 hours)	Multiple ([1]; 72 hours)	pIC50 [1, 3]	pIC50 [1, 4]	Treatment effect on renal fibrosis (conclusion) ([2]; 15 mg/kg)	Score (X ± S), renal interstitium collagens of left kidneys, MASSON staining ([2]; 15 mg/kg intragastric once per day for 12 days, SD rats n=3, model group 2.45 ± 0.38, normal group 0.25 ± 0.00, p < 0.01 vs model)	Score (X ± S), index of renal tubulointerstitial lesions of obstruction kidneys, HE staining ([2]; 15 mg/kg intragastric once per day for 12 days, SD rats n=3, model group 9.00 ± 1.00, normal group 0.33 ± 0.12, p < 0.01 vs model)	pIC50 ([1]; 48 hours after administration)	pIC50 ([1]; 72 hours after administration)
O=c1ccc(C(F)(F)F)cn1-c1ccc(N(CCO)CCO)cc1Cl [Compound 6, 1-(4-(N,N-(2-hydroxyethyl)amino)-2-chlorophenyl)-5-(trifluoromethyl)pyridin-2(1H)-one]	6.91	6.00	3.19	3.23	–	–	–	–	–
O=c1ccc(C(F)(F)F)cn1-c1ccc(NCCCN2CCOCC2)cc1Cl [Compound 2, 1-(2-chloro-4-((3-morpholinylpropyl)amino)phenyl)-5-(trifluoromethyl)pyridin-2(1H)-one]	18.36	21.87	3.62	3.79	–	–	–	–	–
O=c1ccc(C(F)(F)F)cn1-c1ccc(NCCO)cc1Cl [Compound 5, 1-(2-chloro-4-((2-hydroxyethyl)amino)phenyl)-5-(trifluoromethyl)pyridin-2(1H)-one]	3.21	5.57	2.86	3.20	–	–	–	–	–
Cl.O=c1ccc(C(F)(F)F)cn1-c1ccc(NCCCN2CCCCC2)cc1Cl [Compound 7, 1-(2-chloro-4-(((3-piperidin-1-yl)propyl)amino)phenyl)-5-(trifluoromethyl)pyridin-2(1H)-one hydrochloride]	17.09	71.17	3.59	4.31	–	–	–	–	–
CN1CCN(CCNc2ccc(-n3cc(C(F)(F)F)ccc3=O)c(Cl)c2)CC1 [Compound 12, 1-(2-chloro-4-((2-(4-methylpiperazin-1-yl)ethyl)amino)phenyl)-5-(trifluoromethyl)pyridin-2(1H)-one]	13.42	33.33	3.48	3.97	–	–	–	–	–
O=c1ccc(C(F)(F)F)cn1-c1ccc(NCCN2CCOCC2)cc1Cl [Compound 11, 1-(2-chloro-4-((2-morpholinylethyl)amino)-phenyl)-5-(trifluoromethyl)pyridin-2(1H)-one]	25.50	62.50	3.76	4.25	–	–	–	–	–
CCCCOCCCNc1ccc(-n2cc(C(F)(F)F)ccc2=O)c(Cl)c1 [Compound 4, 1-(4-((3-butoxypropyl)amino)-2-chlorophenyl)-5-(trifluoromethyl) pyridin-2(1H)-one]	6.31	11.31	3.15	3.51	–	–	–	–	–
O=c1ccc(C(F)(F)F)cn1-c1ccc(NCCN2CCN(CCO)CC2)cc1Cl [Compound 13, 1-(2-chloro-4-((2-(4-(2-hydroxyethyl)piperazin-1-yl)ethyl)amino)-phenyl)-5-(trifluoromethyl)pyridin-2(1H)-one]	44.14	57.20	4.00	4.21	can effectively treat renal fibrosis	1.52 ± 0.16^⋆⋆**	7.00 ± 0.35^⋆⋆**	–	–
CN1CCN(CCCNc2ccc(-n3cc(C(F)(F)F)ccc3=O)c(Cl)c2)CC1 [Compound 1, 1-(2-chloro-4-((3-(4-methylpiperazin-1-yl)propyl)amino)phenyl)-5-(trifluoromethyl)pyridin-2(1H)-one]	15.50	21.60	3.54	3.79	–	–	–	–	–
O=c1ccc(C(F)(F)F)cn1-c1ccc(NCCN2CCCCC2)cc1Cl [Compound 10, 1-(2-chloro-4-((2-(piperidyl-1-yl)ethyl)amino)phenyl)-5-(trifluoromethyl)pyridin-2(1H)-one]	20.73	56.50	3.67	4.21	–	–	–	–	–
O=c1ccc(C(F)(F)F)cn1-c1ccc(NCCCN2CCCCC2)cc1Cl [Compound 3, 1-(2-chloro-4-((3-piperidin-1-yl)propylamino)phenyl)-5-(trifluoromethyl)pyridin-2(1H)-one]	18.60	54.0	–	–	–	–	–	3.62	4.19
O=c1ccc(C(F)(F)F)cn1-c1ccc(NCCOCCO)cc1Cl [Compound 8, 1-(2-chloro-4-((2-(2-hydroxyethoxy)ethyl)amino)phenyl)-5-(trifluoromethyl)pyridin-2(1H)-one]	9.09	10.59	3.31	3.48	–	–	–	–	–
